Results on 1 compound are retold here after publication PMC7999182, “Interaction of Remdesivir with Clinically Relevant Hepatic Drug Uptake Transporters” (Pharmaceutics, 2021).

In the data set the target is T1, OATP1B1*5 (Homo sapiens, UniProt Q9Y6L6, V174A).
T1 construct: expressed in transfected cells
T1 sequence (Q9Y6L6 1-691 V174A): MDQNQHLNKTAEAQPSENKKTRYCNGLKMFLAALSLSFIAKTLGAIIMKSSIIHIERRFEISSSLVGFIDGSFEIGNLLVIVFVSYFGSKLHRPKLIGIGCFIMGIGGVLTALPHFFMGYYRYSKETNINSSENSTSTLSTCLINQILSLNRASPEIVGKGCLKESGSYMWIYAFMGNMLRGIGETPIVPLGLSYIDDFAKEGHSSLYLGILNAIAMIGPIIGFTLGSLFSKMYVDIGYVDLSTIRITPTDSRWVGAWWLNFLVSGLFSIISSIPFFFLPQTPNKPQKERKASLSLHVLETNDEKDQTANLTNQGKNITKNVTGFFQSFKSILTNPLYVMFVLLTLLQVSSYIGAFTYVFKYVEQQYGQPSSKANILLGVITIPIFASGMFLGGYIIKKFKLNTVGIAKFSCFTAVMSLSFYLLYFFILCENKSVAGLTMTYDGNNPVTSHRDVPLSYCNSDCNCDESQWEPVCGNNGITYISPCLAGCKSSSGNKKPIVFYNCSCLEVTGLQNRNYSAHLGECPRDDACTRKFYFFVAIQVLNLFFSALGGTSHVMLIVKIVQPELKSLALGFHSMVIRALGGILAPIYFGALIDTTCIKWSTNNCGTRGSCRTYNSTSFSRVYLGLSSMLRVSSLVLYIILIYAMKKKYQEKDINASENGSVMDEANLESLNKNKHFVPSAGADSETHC
Briefly: Remdesivir uptake into HEK cells stably expressing OATP1B1*5 vs vector control. It is filed as in vitro ADME. As to conditions: 0.5 µM remdesivir, 10 min. From the text:
Generation, cultivation and characterization of human embryonic kidney (HEK) cells stably expressing OATP1B1 refseq (=OATP1B1*1a), OATP1B1*1b, OATP1B1*5 and OATP1B1*15 [18], OATP1B3 [19], OATP2B1 [13] and OCT1 [20] have been described previously. OATP1B1 cells were cultivated in minimal essential medium (Life Technologies, Paisley, UK) and OATP1B3, OATP2B1 and OCT1 cells were cultivated in Dulbecco’s modified Eagle medium (Sigma, Darmstadt, Germany). Cultivation media were supplemented with 10% fetal calf serum, 100 U/mL penicillin and 100 µg/mL streptomycin. Cells were grown at 37 °C and 5% CO2. Functionality of the cells was confirmed by measuring uptake of prototypic substrates (see Section 2.3 and supplementary material).
Uptake assays were conducted at 37 °C according to previously described methods. For this, cells were seeded in 24-well plates (320,000 cells/well) and cultured for 2 days. Cells were then incubated for a further 24 h in culture medium with 5 mM butyrate (OATP1B3, OATP2B1, OCT1) or 10 mM butyrate (OATP1B1) to increase protein levels of recombinant transporters. […]
Remdesivir was determined by UHPLC-MS-MS analysis on an Agilent 1290 infinity UHPLC system coupled to an Agilent 6495B triple quadrupole mass spectrometer (Agilent, Waldbronn, Germany) similar to a recently published method. […]

Take `CCC(CC)COC(=O)[C@H](C)N[P@](=O)(OC[C@H]1O[C@@](C#N)(c2ccc3c(N)ncnn23)[C@H](O)[C@@H]1O)Oc1ccccc1` [Remdesivir]: the “Uptake vs vector-transfected control cells” value is “significantly lower uptake”.
